According to patent US4578395A, “Certain aralkylaminoalkyl esters of 1,4 dihydropyridines as antihypertensive” (Teijin Limited, priority 1983, dated 1986):
Structures can show the parent of a compound that is named as a salt.

What was measured:
[1] = test system: SHR (Spontaneously Hypertensive Rats); experiment: Antihypertensive activity in SHR; assay type: in vivo, Male SHR (Spontaneously Hypertensive Rats); conditions: no anesthesia
Description: Male SHR (14 to 16 weeks old) fasted for more than 16 hours were used. […] When one hour or more passed after the rats woke up out of the ether, they were administered the test compound orally. The blood pressure was measured with the pressure transducer via the catheter inserted into the femoral artery.
The test compound was dissolved in a small quantity of ethanol and diluted with water to be adjusted for administration.
Changes in the mean blood pressure were obtained from the equation mentioned below. The Basic and Clinical Study, vol. 14, p. 4495 (1980) is a useful literature to be referred to for making this kind of experiment. [formula]

[2] = test system: anesthetized rat; experiment: Hypotensive activity by intravenous administration in anesthetized rat (Example 27); assay type: in vivo, Male Wistar rats; conditions: for ED20: Rattus norvegicus, iv, anesthetized Wistar rats about 300 g, read-out: ED20 (dose decreasing mean blood pressure by 20%); for Duration T1/2: i.v.
Description: (§1) Male Wistar rats weighing about 250 g were used. They were anesthetized with urethane (500 mg/kg) and α-chloralose (100 mg/kg) intraperitoneal injection.
(§2) The test compound was dissolved in a small quantity of ethanol and the solution, which was then diluted with physiological saline to have a final concentration of ethanol kept at 5% or lower, was intravenously injected through a catheter inserted into the femoral vein.
(§3) The blood pressure was recorded with the pressure transducer via the catheter inserted into the common carotid artery of the rats.
(§4) Hypotensive activity of the test compound was indicated by the dose (ED20 μ/kg) required for decreasing the mean blood pressure by 20% as compared with the mean blood pressure before the administration.
(§5) To determine the duration of the hypotensive action of the test compound, half-life of hypotensive action T^1 /2) was measured.
Male Wistar rats weighing about 300 g were used. The measurement of hypotensive activity was conducted according to the same method as Example 23.

[3] = test system: rats periphery; experiment: Vasodilative activity in rats periphery (constant volume blood perfusion); assay type: in vivo, Male SD strain rats
Description: Male SD strain rats, weighing 350 g to 450 g, were used. They were anesthetized with sodium pentobarbital 60 mg/kg i.p. […] The solution of the test compound was infused into the perfusion blood on the peripheral side with a perfusion pump, and changes in perfusion pressure were measured. The activity of the test compound was determined as the ratio of the relative activity of the test compound against papaverine obtained from the dose-response curves.

[4] = Light stability in methanol solution; assay type: physicochemical
Description: 1 mg of compound (156) hydrochloride was dissolved in 100 ml of methanol. The solution was placed in a transparent glass test tube, and after the test tube was tightly stoppered, it was allowed to stand by the window of the laboratory. Part of the solution was taken at regular intervals and subjected to high performance liquid chromatograph to determined the remaining quantity of compound (156) hydrochloride contained in the solution. The same experiment was conducted with nicardipine hydrochloride as the control.

[5] = test system: peripheral blood vessels (femoral artery); experiment: Action on peripheral blood vessels (femoral blood flow) in anesthetized dog; assay type: in vivo, male beagle dog; conditions: 3 μg/kg i.v.
Description: (§6) A male beagle dog weighing about 10 kg was anesthetized with sodium pentobarbital (35 mg/kg i.v.). The test compound was dissolved in a small quantity of ethanol, diluted with an isotonic sodium chloride solution, and was injected into the right femoral vein.
The carotic blood flow (CBF) and the femoral blood flow (FBF) were measured with the electromagnetic blood flowmeter (MFV-1200 made by Japan Photoelectric Co., Ltd.) via probe for measuring the blood flow volume set in the right common carotid artery and the left femoral artery of the male beagle dog respectively.

[6] = test system: anesthetized rats; experiment: Hypotensive activity by intravenous administration in anesthetized rats (Example 23); assay type: in vivo, Male Wistar rats; conditions: for ED20: Rattus norvegicus, iv, anesthetized Wistar rats about 250 g, read-out: ED20 (dose decreasing mean blood pressure by 20%); for Duration T1/2 (half-life of hypotensive action): i.v., dose 10
Description: as §1, §2, §3, §4, §5

[7] = test system: platelet aggregation; experiment: In vitro inhibitory activity of platelet aggregation; assay type: cell-based, male Hartley guinea pigs; conditions: Cavia porcellus, Platelet; Conc. 100 μM, AA 75 μM
Description: The in vitro platelet aggregation inhibiting activities of the compounds of the invention were examined by using guinea pigs. Blood was withdrawn by cardiac puncture from male Hartley guinea pigs weighing […]. A mixture of a 3.8% trisodium citrate solution and the blood in a ratio of 1:9 was centrifuged at a speed of 800 rpm for 10 minutes. The upper layer was separated as platelet-rich plasma (PRP). The lower layer was further centrifuged at a separated as platelet-poor plasma (PPP). The number of platelets was adjusted to 5×10^5 /μl to 6×10^5 /μl by filuting the PRP with PPP. 25 microliters of the test compounds prepared as shown below was added in an amount of 25 microliters of PRP after the adjustment, and the mixture was pre-incubated at 37° C. for 2 minutes, and then 75 μM (final) of AA was added. By using an aggregometer (37° C., 1,100 rpm), changes in transmission were recorded.
The test compound was dissolved in ethanol to a concentration of 10 mg/ml. When its activity was measured, it was used after being diluted with phosphate buffer (pH 7.4). Furthermore, after dilution with the buffer, the test compound was left to stand at 0° C. for 4 hours, and the activity of the test compound was similarly measured.
The rate of inhibition of platelet aggregation was determined from the following equation. [formula]

[8] = test system: mean blood pressure; experiment: Action on mean blood pressure in anesthetized dog; assay type: in vivo, male beagle dog; conditions: 10 μg/kg i.v.
Description: as §6
The mean blood pressure (MBP) was measured with the pressure transwer via the cannula inserted into the right femoral artery of the male beagle dog. The changes in the blood pressure after the administration of the test compound are shown in percentages in Table 5.

[9] = test system: conscious rats; experiment: Antihypertensive activity by oral administration in conscious rats; assay type: in vivo, Male Wistar rats; conditions: 10 mg/kg oral
Description: When one hour or more passed after the rats were aroused, they were administered the test compound orally.
The blood pressure in the femoral artery was recorder and changes in the mean blood pressure were obtained from the following equation. [formula]

## COC(=O)C1=C(C)NC(C)=C(C(=O)OCCN(C)Cc2ccccc2)C1c1cccc(Cl)c1F (stereo not drawn) [(106) hydrochloride, 2-(N-Benzyl-N-methylamino)ethyl methyl 2,6-dimethyl-4-(3-chloro-2-fluorophenyl)-1,4-dihydropyridine-3,5-dicarboxylate]
[1]; 10 mg/kg oral, 30 min.
  Changes in MBP: -56 ± 6 mmHg
[1]; 10 mg/kg oral, 60 min.
  Changes in MBP: -53 ± 11 mmHg
[1]; 10 mg/kg oral, 90 min.
  Changes in MBP: -46 ± 10 mmHg
[1]; 10 mg/kg oral, 2 hr.
  Changes in MBP: -47 ± 11 mmHg
[1]; 10 mg/kg oral, 3 hr.
  Changes in MBP: -39 ± 10 mmHg
[1]; 10 mg/kg oral, 5 hr.
  Changes in MBP: -37 mmHg
[1]; 10 mg/kg oral, 7 hr.
  Changes in MBP: -31 ± 7 mmHg

## COC(=O)C1=C(C)NC(C)=C(C(=O)OCC(C)(C)CN(C)C)C1c1cccc([N+](=O)[O-])c1Cl (stereo not drawn) [reference compound]
[2]
  ED20: 0.288 mg/kg
[2]; dose 300
  Duration T1/2: 3.5 min

## COC(=O)C1=C(C)NC(C)=C(C(=O)OCCN(C)Cc2ccccc2)C1c1cccc([N+](=O)[O-])c1F (stereo not drawn) [(104) hydrochloride, 2-(N-Benzyl-N-methylamino)ethyl methyl 2,6-dimethyl-4-(2-fluoro-3-nitrophenyl)-1,4-dihydropyridine-3,5-dicarboxylate]
[3]; dosage 0.1 μg/kg
  relative vasodilative activity against papaverine: 30 times
[3]; dosage 1 μg/kg
  relative vasodilative activity against papaverine: 50 times

## COC(=O)C1=C(C)NC(C)=C(C(=O)OCC(C)(C)CN(C)C)C1c1cccc(Cl)c1F (stereo not drawn) [reference compound]
[2]
  ED20: 0.0807 mg/kg
[2]; dose 100
  Duration T1/2: 4.6 min

## COC(=O)C1=C(C)NC(C)=C(C(=O)OCC(C)(C)CN(C)Cc2ccccc2)C1c1cccc(Cl)c1F (stereo not drawn) [(156) hydrochloride, 3-(N-Benzyl-N-methylamino)-2,2-dimethylpropyl methyl 2,6-dimethyl-4-(3-chloro-2-fluorophenyl)-1,4-dihydropyridine-3,5-dicarboxylate]
[4]
  light stability compared with nicardipine hydrochloride: better light stability than nicardipine hydrochloride
[4]; light, 2 hr., read-out: Remaining percentage
  remaining at 2 h: 100%
[4]; light, 4 hr., read-out: Remaining percentage
  remaining at 4 h: 99%
[4]; light, 6 hr., read-out: Remaining percentage
  remaining at 6 h: 100%
[5]; 0.5 min.
  Changes in FBF: 0 ± 0%
[5]; 1 min.
  Changes in FBF: -1 ± 3%
[5]; 2 min.
  Changes in FBF: +5 ± 5%
[5]; 5 min.
  Changes in FBF: +19 ± 5%
[5]; 10 min.
  Changes in FBF: +20 ± 10%
[6]
  ED20: 0.0149 mg/kg
  Duration T1/2 (half-life of hypotensive action): 20 min
[7]
  inhibition at 100 µM: -1.9 ± 2.5%
[1]; 3 mg/kg oral, 30 min.
  Changes in MBP: -41 ± 8 mmHg
[1]; 3 mg/kg oral, 60 min.
  Changes in MBP: -39 ± 7 mmHg
[1]; 3 mg/kg oral, 90 min.
  Changes in MBP: -35 ± 5 mmHg
[1]; 3 mg/kg oral, 2 hr.
  Changes in MBP: -28 ± 6 mmHg
[1]; 3 mg/kg oral, 3 hr.
  Changes in MBP: -28 ± 6 mmHg
[1]; 3 mg/kg oral, 5 hr.
  Changes in MBP: -18 mmHg
[1]; 3 mg/kg oral, 7 hr.
  Changes in MBP: -20 ± 4 mmHg
[2]
  ED20: 0.0245 mg/kg
[2]; dose 30
  Duration T1/2: 8.5 min

## COC(=O)C1=C(C)NC(C)=C(C(=O)OCC(C)(C)CN(C)Cc2ccccc2)C1c1cccc([N+](=O)[O-])c1F (stereo not drawn) [(130) hydrochloride, 3-(N-Benzyl-N-methylamino)-2,2-dimethylpropyl methyl 2,6-dimethyl-4-(2-fluoro-3-nitrophenyl)-1,4-dihydropyridine-3,5-dicarboxylate]
[6]
  ED20: 0.016 mg/kg
  Duration T1/2 (half-life of hypotensive action): > 30 min
[8]; 0.5 min.
  Changes in MBP: -7 ± 1%
[8]; 1 min.
  Changes in MBP: -11 ± 1%
[8]; 2 min.
  Changes in MBP: -14 ± 1%
[8]; 5 min.
  Changes in MBP: -16 ± 2%
[8]; 10 min.
  Changes in MBP: -19 ± 3%
[8]; 15 min.
  Changes in MBP: -20 ± 3%
[1]; 3 mg/kg oral, 30 min.
  Changes in MBP: -67 ± 13 mmHg
[1]; 3 mg/kg oral, 60 min.
  Changes in MBP: -62 ± 13 mmHg
[1]; 3 mg/kg oral, 90 min.
  Changes in MBP: -60 ± 14 mmHg
[1]; 3 mg/kg oral, 2 hr.
  Changes in MBP: -54 ± 11 mmHg
[1]; 3 mg/kg oral, 3 hr.
  Changes in MBP: -48 ± 13 mmHg
[1]; 3 mg/kg oral, 5 hr.
  Changes in MBP: -40 mmHg
[1]; 3 mg/kg oral, 7 hr.
  Changes in MBP: -29 ± 8 mmHg
[2]
  ED20: 0.0147 mg/kg
[2]; dose 10
  Duration T1/2: 15 min

## COC(=O)C1=C(C)NC(C)=C(C(=O)OCC(C)(C)CN(C)Cc2ccccc2)C1c1cccc([N+](=O)[O-])c1 (stereo not drawn) [(302) hydrochloride, 3-(N-Benzyl-N-methylamino)-2,2-dimethylpropyl methyl 2,6-dimethyl-4-(3-nitrophenyl)-1,4-dihydropyridine-3,5-dicarboxylate]
[6]
  ED20: 0.0091 mg/kg
  Duration T1/2 (half-life of hypotensive action): > 30 min

## COC(=O)C1=C(C)NC(C)=C(C(=O)OCC(C)(C)CN(C)Cc2c(Cl)cccc2Cl)C1c1cccc(Cl)c1F (stereo not drawn) [(202) hydrochloride, 3-(N-2,6-Dichlorobenzyl-N-methylamino)-2,2-dimethylpropyl methyl 2,6-dimethyl-4-(3-chloro-2-fluorophenyl)-1,4-dihydropyridine-3,5-dicarboxylate]
[9]; after 30 min
  Changes in mean blood pressure: -39 mmHg
[9]; after 60 min
  Changes in mean blood pressure: -40 mmHg
[9]; after 90 min
  Changes in mean blood pressure: -38 mmHg
[9]; after 2 hr
  Changes in mean blood pressure: -33 mmHg
[9]; after 3 hr
  Changes in mean blood pressure: -33 mmHg
[9]; after 5 hr
  Changes in mean blood pressure: -24 mmHg
[9]; after 7 hr
  Changes in mean blood pressure: -23 mmHg
